Results taken from US20260200919A1, “SUBSTITUTED AMINOPYRIDINE COMPOUNDS AND METHODS OF TREATING DISEASE USING SAME” (Atavistik Bio, Inc., priority 2023, published 2026).

Tests used:
[1] = target: T1, human recombinant kinase full-length AKT1 E17K (Homo sapiens, UniProt P31749, E17K); assay: AKT1 E17K kinase assay (TR-FRET, Lance); assay type: biochemical; details: 0.6 nM AKT1 E17K, 50 nM Ulight-CREBtide, either 50 μM ATP or 2 mM ATP (not specified which), 60 min at RT
T1 construct: Purified human recombinant kinase full-length AKT1 E17K was expressed in insect cells; made in house; host or cells: insect cells
T1 sequence (P31749 whole entry E17K): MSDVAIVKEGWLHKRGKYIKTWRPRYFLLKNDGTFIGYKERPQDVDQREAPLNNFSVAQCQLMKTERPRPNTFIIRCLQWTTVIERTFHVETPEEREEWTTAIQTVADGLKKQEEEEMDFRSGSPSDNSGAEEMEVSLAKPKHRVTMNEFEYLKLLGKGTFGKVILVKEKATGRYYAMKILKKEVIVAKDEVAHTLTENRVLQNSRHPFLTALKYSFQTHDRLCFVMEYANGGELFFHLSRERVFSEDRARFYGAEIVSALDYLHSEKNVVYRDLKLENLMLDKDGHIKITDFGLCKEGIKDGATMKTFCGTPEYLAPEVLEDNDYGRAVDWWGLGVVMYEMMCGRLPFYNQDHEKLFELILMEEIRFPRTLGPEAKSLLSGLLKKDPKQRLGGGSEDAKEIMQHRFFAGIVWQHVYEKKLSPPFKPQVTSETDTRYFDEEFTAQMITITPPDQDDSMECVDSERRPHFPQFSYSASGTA
Method in brief: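 Full-length human AKT1 E17K (insect cell-expressed, PDPK1-activated; 0.6 nM) with 50 nM ULight-CREBtide in HEPES pH 7.5 with MgCl2 and DTT. ATP at 50 μM or 2 mM, 1% DMSO, 10-point dose response, 60 min at RT.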

[2] = target: T2, human recombinant kinase full-length wildtype AKT1 (Homo sapiens, UniProt P31749); assay: AKT1 kinase assay (wildtype, TR-FRET, Lance); assay type: biochemical; details: 0.6 nM wildtype AKT1, 50 nM Ulight-CREBtide, either 50 μM ATP or 2 mM ATP (not specified which), 60 min at RT
T2 construct: Purified human recombinant kinase full-length wildtype AKT1 was expressed in insect cells; made in house; host or cells: insect cells
T2 sequence (P31749 whole entry): as the sequence (P31749 whole entry E17K) above, with K17E counted along it
Method in brief: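 Insect-cell-expressed AKT1, activated in vitro by PDPK1, was used at 0.6 nM with 50 nM Ulight-CREBtide and 50 μM or 2 mM ATP in 50 mM HEPES pH 7.5, 1% DMSO, over a 10-point dose response.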

IC50 [1] [µM] | IC50 [2] [µM] | SMILES
> 0.5 | < 0.5 | COC(=O)CCc1cccc(C(=O)NCc2ccc(-n3c(-c4cccnc4N)nc4cc(-c5cccnc5)cnc43)cc2)c1 [Compound 93, methyl 3-(3-((4-(2-(2-aminopyridin-3-yl)-6-(pyridin-3-yl)-3H-imidazo[4,5-b]pyridin-3-yl)benzyl)carbamoyl)phenyl) propanoate]
> 0.5 | < 0.5 | COC(=O)Cc1cccc(C(=O)NCc2ccc(-n3c(-c4cccnc4N)nc4cc(-c5cccnc5)cnc43)cc2)c1 [Compound 89, methyl 2-(3-((4-(2-(2-aminopyridin-3-yl)-6-(pyridin-3-yl)-3H-imidazo[4,5-b]pyridin-3-yl)benzyl)carbamoyl)phenyl)acetate]
0.05 to 0.2 | < 0.5 | Nc1ncccc1-c1nc2ccc(-c3ccccc3)nc2n1-c1ccc(C2CN(C(=O)c3cccc(C(=O)O)c3)C2)cc1 [Compound 72, 3-(3-(4-(2-(2-aminopyridin-3-yl)-5-phenyl-3H-imidazo[4,5-b]pyridin-3-yl)phenyl)azetidine-1-carbonyl)benzoic acid]
< 0.05 | < 0.5 | Nc1ncccc1-c1nc2ccc(-c3ccccc3)nc2n1-c1ccc(NC(=O)c2cccc(C(=O)O)c2F)cc1 [Compound 55, 3-[[4-[2-(2-amino-3-pyridyl)-5-phenyl-imidazo[4,5-b]pyridin-3-yl]phenyl]carbamoyl]-2-fluoro-benzoic acid]
< 0.05 | < 0.5 | Nc1ncccc1-c1nc2ccc(-c3ccccc3)nc2n1-c1ccc(C2CN(Cc3cc(O)c(C(=O)O)c(F)c3)C2)cc1 [Compound 185, 4-((3-(4-(2-(2-aminopyridin-3-yl)-5-phenyl-3H-imidazo[4,5-b]pyridin-3-yl)phenyl)azetidin-1-yl)methyl)-2-fluoro-6-hydroxybenzoic acid]
< 0.05 | < 0.5 | Cc1cc(C(=O)O)ccc1C(=O)N1CC(c2ccc(-n3c(-c4cccnc4N)nc4ccc(-c5ccccc5)nc43)cc2)C1 [Compound 75, 4-(3-(4-(2-(2-aminopyridin-3-yl)-5-phenyl-3H-imidazo[4,5-b]pyridin-3-yl)phenyl)azetidine-1-carbonyl)-3-methylbenzoic acid]
< 0.05 | < 0.5 | Nc1ncccc1-c1nc2ccc(-c3ccccc3)nc2n1-c1ccc(NC(=O)c2cc(F)c(C(=O)O)c(F)c2)nc1 [Compound 150]
> 0.5 | < 0.5 | Nc1ncccc1-c1nc2ccc(-c3ccccc3)nc2n1-c1ccc(C2CCN(Cc3ccc(C(=O)O)cc3)CC2)cc1 [Compound 139, 4-((4-(4-(2-(2-aminopyridin-3-yl)-5-phenyl-3H-imidazo[4,5-b]pyridin-3-yl)phenyl)piperidin-1-yl)methyl)benzoic acid]
0.2 to 0.5 | < 0.5 | CC(C(=O)O)c1cccc(C(=O)NCc2ccc(-n3c(-c4cccnc4N)nc4ccc(-c5ccccc5)nc43)cc2)c1F (stereo not shown) [Compound 37, 2-(3-((4-(2-(2-aminopyridin-3-yl)-5-phenyl-3H-imidazo[4,5-b]pyridin-3-yl)benzyl)carbamoyl)-2-fluorophenyl) propanoic acid]
> 0.5 | < 0.5 | Cc1cc(C(=O)Nc2ccc(-n3c(-c4cccnc4N)nc4ccc(-c5ccccc5)nc43)c(C)n2)c(C)cc1C(=O)O [Compound 155]
0.05 to 0.2 | < 0.5 | Nc1ncccc1-c1nc2ccc(-c3ccccc3)nc2n1-c1ccc(NC(=O)c2cccc(CC(=O)O)c2)c(F)c1 [Compound 67, 2-(3-((4-(2-(2-aminopyridin-3-yl)-5-phenyl-3H-imidazo[4,5-b]pyridin-3-yl)-2-fluorophenyl)carbamoyl)phenyl) acetic acid]
0.05 to 0.2 | < 0.5 | COC(=O)c1cccc(C(=O)N2CC(c3ccc(-n4c(-c5cccnc5N)nc5ccc(-c6ccccc6)nc54)cc3)C2)c1 [Compound 71, methyl 3-(3-(4-(2-(2-aminopyridin-3-yl)-5-phenyl-3H-imidazo[4,5-b]pyridin-3-yl)phenyl)azetidine-1-carbonyl)benzoate]
0.05 to 0.2 | < 0.5 | CC(c1ccc(C(=O)O)c(F)c1)N1CC(c2ccc(-n3c(-c4cccnc4N)nc4ccc(-c5ccccc5)nc43)cc2)C1 (stereo not shown) [Compound 163]
> 0.5 | < 0.5 | Cc1nc(NC(=O)c2ccc(C(=O)O)cc2)ccc1-n1c(-c2cccnc2N)nc2ccc(-c3ccccc3)cc21 [Compound 182, 4-((5-(2-(2-aminopyridin-3-yl)-6-phenyl-1H-benzo[d]imidazol-1-yl)-6-methylpyridin-2-yl)carbamoyl)benzoic acid]
> 0.5 | < 0.5 | COc1ccc2nc(-c3cccnc3N)n(-c3ccc(CNC(=O)c4ccc(C(=O)O)cc4C)cc3)c2c1 [Compound 102, 4-((4-(2-(2-aminopyridin-3-yl)-6-methoxy-1H-benzo[d]imidazol-1-yl)benzyl)carbamoyl)-3-methylbenzoic acid]
< 0.05 | < 0.5 | Nc1ncccc1-c1nc2ccc(-c3ccccc3)nc2n1-c1ccc(NC(=O)c2cccc(C(=O)O)c2)nc1 [Compound 60, 3-((5-(2-(2-aminopyridin-3-yl)-5-phenyl-3H-imidazo[4,5-b]pyridin-3-yl)pyridin-2-yl)carbamoyl)benzoic acid]
> 0.5 | > 0.5 | CC(C(=O)O)c1cccc(C(=O)NCc2ccc(-n3c(-c4cccnc4N)nc4ccc(-c5ccccc5)nc43)cc2)n1 (stereo not shown) [Compound 38, 2-(6-((4-(2-(2-aminopyridin-3-yl)-5-phenyl-3H-imidazo[4,5-b]pyridin-3-yl)benzyl)carbamoyl)pyridin-2-yl) propanoic acid]
> 0.5 | < 0.5 | Nc1ncccc1-c1nc2ccc(-c3ccccc3)nc2n1-c1ccc(C2CN(Cc3ccc(C(=O)O)cc3)C2)nc1 [Compound 168, 4-[[3-[5-[2-(2-amino-3-pyridyl)-5-phenyl-imidazo[4,5-b]pyridin-3-yl]-2-pyridyl]azetidin-1-yl]methyl]benzoic acid]
0.05 to 0.2 | < 0.5 | Nc1ncccc1-c1nc2ccc(-c3ccccc3)nc2n1-c1ccc(NC(=O)c2cc(F)c(C(=O)O)cc2F)nc1 [Compound 152]
< 0.05 | < 0.5 | Nc1ncccc1-c1nc2ccc(-c3ccccc3)nc2n1-c1ccc(NC(=O)c2cccc(CCC(=O)O)c2)cc1 [Compound 57, 3-(3-((4-(2-(2-aminopyridin-3-yl)-5-phenyl-3H-imidazo[4,5-b]pyridin-3-yl)phenyl)carbamoyl)phenyl) propanoic acid]
0.2 to 0.5 | < 0.5 | CC(=O)Nc1cccc(-c2cnc3c(c2)nc(-c2cccnc2N)n3-c2ccc(CNC(=O)c3cccc(CC(=O)O)c3)cc2)c1 [Compound 83, 2-(3-((4-(6-(3-acetamidophenyl)-2-(2-aminopyridin-3-yl)-3H-imidazo[4,5-b]pyridin-3-yl)benzyl)carbamoyl)phenyl) acetic acid]
> 0.5 | > 0.5 | Nc1ncccc1-c1nc2ccc(OC(F)(F)F)cc2n1-c1ccc(NC(=O)c2ccc(C(=O)O)cc2)nc1 [Compound 175, 4-((5-(2-(2-aminopyridin-3-yl)-6-(trifluoromethoxy)-1H-benzo[d]imidazol-1-yl)pyridin-2-yl)carbamoyl)benzoic acid]
< 0.05 | < 0.5 | Nc1ncccc1-c1nc2ccc(-c3ccccc3)nc2n1-c1ccc(NC(=O)c2ccc(C(=O)O)cc2)cc1 [Compound 53]
< 0.05 | < 0.5 | Nc1ncccc1-c1nc2ccc(-c3ccccc3)nc2n1-c1ccc(NC(=O)c2cccc(C(=O)O)c2)cc1 [Compound 54, 3-[[4-[2-(2-amino-3-pyridyl)-5-phenyl-imidazo[4,5-b]pyridin-3-yl]phenyl]carbamoyl]benzoic acid]
> 0.5 | < 0.5 | NC(=O)Cc1cccc(C(=O)NCc2ccc(-n3c(-c4cccnc4N)nc4ccc(-c5ccccc5)nc43)cc2)c1 [Compound 43, 3-(2-amino-2-oxoethyl)-N-(4-(2-(2-aminopyridin-3-yl)-5-phenyl-3H-imidazo[4,5-b]pyridin-3-yl)benzyl)benzamide]
0.05 to 0.2 | < 0.5 | Cc1cc(C(=O)Nc2ccc(-n3c(-c4cccnc4N)nc4ccc(-c5ccccc5)nc43)cn2)c(F)cc1C(=O)O [Compound 145]
> 0.5 | > 0.5 | CC(C)(C)c1ccc2nc(-c3cccnc3N)n(-c3ccc(NC(=O)c4ccc(C(=O)O)cc4)nc3)c2c1 [Compound 174, 4-((5-(2-(2-aminopyridin-3-yl)-6-(tert-butyl)-1H-benzo[d]imidazol-1-yl)pyridin-2-yl)carbamoyl)benzoic acid]
> 0.5 | > 0.5 | COc1ccc2nc(-c3cccnc3N)n(-c3ccc(CNC(=O)c4cccc(C(=O)O)c4F)cc3)c2c1 [Compound 103, 3-((4-(2-(2-aminopyridin-3-yl)-6-methoxy-1H-benzo[d]imidazol-1-yl)benzyl)carbamoyl)-2-fluorobenzoic acid]
< 0.05 | < 0.5 | Nc1ncccc1-c1nc2ccc(-c3ccccc3)nc2n1-c1ccc(NC(=O)c2ccc(C(=O)O)cc2)nc1 [Compound 59, 4-((5-(2-(2-aminopyridin-3-yl)-5-phenyl-3H-imidazo[4,5-b]pyridin-3-yl)pyridin-2-yl)carbamoyl)benzoic acid]
